Patent publication US20020137929A1, “1 - (3-heterocyclylphenyl) isothiourea, -isourea, -guanidine and -amidine herbicidal agents” (Intellectual Property Department, BASF Aktiengesellschaft, priority 1998, published 2002)

Experiments:
[1] = test system: TRZAWR (Wheat, Winter, cv Riband); experiment: Preemergence herbicidal evaluation; format: in vivo, Triticum aestivum; settings: rated 4-5 weeks after treatment; for TRZAWR rating: preemergence, 0-9 scale
Method in brief: (§1)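 Steps: mix seeds into potting soil; plant atop ~1 inch soil; spray compound in aqueous acetone (~0.0156-0.500 kg/ha equivalent); maintain in greenhouse with watering; rate visually 0-9 versus control at 4-5 weeks.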

ORYSAT (Rice, Tebonnet) = experiment: Postemergence herbicidal evaluation; format: in vivo, Oryza sativa, (L.) Tebonnet; settings: for ORYSAT herbicidal rating: postemergence
Method in brief: (§2)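 First, seedlings were raised for around two weeks. Next, test material in 50/50 acetone/water containing 0.5% TWEEN 20 was sprayed through a nozzle at 40 psi, equivalent to about 0.0156–0.500 kg/ha. Finally, after 4–5 weeks in the greenhouse, plants were rated 0–9.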

CYPIR (Rice Flatsedge) [2] = experiment: Postemergence weed control under flooded paddy conditions; format: in vivo, Cyperus iria; settings: postemergence weeds
Method in brief: (§3)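 Herbicidal effect is judged by eye on a 0–9 scale versus control, 3–4 weeks after dosing. Dosing is into flood water kept 1.5–3 cm over the soil, at about 0.0313–0.500 kg/ha in aqueous/acetone 50/50 v/v, on 3–5 cm weeds and 1.5–2.5-leaf rice seedlings.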

CYPIR (Rice Flatsedge) [3] = experiment: Preemergence weed control under flooded paddy conditions; format: in vivo, Cyperus iria; settings: rated 3-4 weeks after treatment
Method in brief: (§4)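 Visual injury scored 0-9 against control three to four weeks post-treatment, greenhouse-grown. Application: acetone/water (50/50) solutions dosed directly into flood water (1.5-3 cm over silt loam, planted top 0.5 cm), roughly 0.0313 to 0.500 kg/ha active ingredient.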

ABUTH (Velvetleaf) = experiment: Postemergence herbicidal evaluation; format: in vivo, Abutilon theophrasti; settings: for ABUTH herbicidal rating: postemergence
Method in brief: as §2

CYPSE (Flatsedge) = experiment: Postemergence weed control under flooded paddy conditions; format: in vivo, Cyperus serotinus; settings: postemergence weeds
Method in brief: as §3

MOOVA (Monochoria) = experiment: Preemergence weed control under flooded paddy conditions; format: in vivo, Monochoria vaginalis; settings: rated 3-4 weeks after treatment
Method in brief: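 Herbicidal effect is scored visually on a 0-9 scale against an untreated control, three to four weeks after compounds are pipetted into the flood water (1.5 to 3 cm deep) over seeds planted in silt loam at 0.5 cm depth. Rates: about 0.0313 to 0.500 kg/ha.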

[4] = test system: ECHORC (Watergrass (Calif.)); experiment: as above; format: in vivo, Echinochloa oryzoides; settings: rated 3-4 weeks after treatment
Method in brief: as §4

ZEAMX (Corn, Field) = experiment: Preemergence herbicidal evaluation; format: in vivo, Zea mays; settings: rated 4-5 weeks after treatment; for ZEAMX rating: preemergence, 0-9 scale
Method in brief: as §1

[5] = test system: IPOHE (Morningglory, Ivyleaf); experiment: Preemergence herbicidal evaluation; format: in vivo, Ipomoea hederacea; settings: rated 4-5 weeks after treatment; for IPOHE rating: preemergence, 0-9 scale
Method in brief: as §1

GALAP (Galium) = experiment: Postemergence herbicidal evaluation; format: in vivo, Galium aparine; settings: for GALAP herbicidal rating: postemergence
Method in brief: as §2

SETVI (Foxtail, Green) = experiment: Postemergence herbicidal evaluation; format: in vivo, Setaria viridis; settings: for SETVI herbicidal rating: postemergence
Method in brief: as §2

ECHCG (Barnyardgrass) = experiment: Postemergence herbicidal evaluation; format: in vivo, Echinochloa crus-galli; settings: for ECHCG herbicidal rating: postemergence
Method in brief: as §2

[6] = test system: SAGPY (Arrowhead (Pygmaea)); experiment: Postemergence weed control under flooded paddy conditions; format: in vivo, Sagittaria pygmaea; settings: postemergence weeds
Method in brief: as §3

[7] = Rate 0.0313 kg/ha, rated 3 to 4 weeks after treatment
[8] = Rate 0.0625 kg/ha, rated 3 to 4 weeks after treatment
[9] = Rate 0.1250 kg/ha, rated 3 to 4 weeks after treatment
[10] = Rate 0.2500 kg/ha, rated 3 to 4 weeks after treatment
[11] = rate 0.0313 kg/ha, 3-4 weeks after treatment
[12] = rate 0.0625 kg/ha, 3-4 weeks after treatment
[13] = rate 0.1250 kg/ha, 3-4 weeks after treatment
[14] = rate 0.2500 kg/ha, 3-4 weeks after treatment

C=CCN1C(=O)C(CC(=O)OC(C)C(=O)OCC)SC1=Nc1cc(-n2c(=O)ccn(C)c2=O)c(F)cc1Cl [Compound 94, 3-Allyl-2-{{2-chloro-5-[3,6-dihydro-3-methyl-2,6-dioxo-1(2H)-pyrimidinyl]-4-fluorophenyl}imino}-4-oxo-5-thiazolidineacetic acid, ester with ethyl lactate, (R,S)-]
2.0: ORYSAT herbicidal rating (ORYSAT (Rice, Tebonnet); rate 0.0158 kg/ha) | ECHORC herbicidal effect rating ([4]; 0.1250 kg/ha)
1.0: ECHCG herbicidal rating (ECHCG (Barnyardgrass); rate 0.0158 kg/ha)
4.5: ORYSAT herbicidal rating (ORYSAT (Rice, Tebonnet); rate 0.0315 kg/ha)
5.0: ORYSAT herbicidal rating (ORYSAT (Rice, Tebonnet); rate 0.0630 kg/ha) | Herbicidal rating SAGPY [6, 9]
9.0: ABUTH herbicidal rating (ABUTH (Velvetleaf); rate 0.0158 kg/ha) | ABUTH herbicidal rating (ABUTH (Velvetleaf); rate 0.0315 kg/ha) | ABUTH herbicidal rating (ABUTH (Velvetleaf); rate 0.0630 kg/ha) | Herbicidal rating CYPSE (CYPSE (Flatsedge); [10]) | MOOVA herbicidal effect rating (MOOVA (Monochoria); 0.0313 kg/ha) | MOOVA herbicidal effect rating (MOOVA (Monochoria); 0.0625 kg/ha) | MOOVA herbicidal effect rating (MOOVA (Monochoria); 0.1250 kg/ha) | MOOVA herbicidal effect rating (MOOVA (Monochoria); 0.2500 kg/ha) | IPOHE rating ([5]; 0.1250 kg/ha) | IPOHE rating ([5]; 0.2500 kg/ha) | SETVI herbicidal rating (SETVI (Foxtail, Green); rate 0.0158 kg/ha) | SETVI herbicidal rating (SETVI (Foxtail, Green); rate 0.0315 kg/ha) | SETVI herbicidal rating (SETVI (Foxtail, Green); rate 0.0630 kg/ha) | ECHCG herbicidal rating (ECHCG (Barnyardgrass); rate 0.0630 kg/ha) | Herbicidal rating SAGPY [6, 10]
3.0: Herbicidal rating CYPIR (CYPIR (Rice Flatsedge) [2]; [8]) | CYPIR herbicidal effect rating (CYPIR (Rice Flatsedge) [3]; 0.0625 kg/ha) | GALAP herbicidal rating (GALAP (Galium); rate 0.0158 kg/ha)
6.0: Herbicidal rating CYPSE (CYPSE (Flatsedge); [9]) | ZEAMX rating (ZEAMX (Corn, Field); 0.2500 kg/ha)
7.0: ECHORC herbicidal effect rating ([4]; 0.2500 kg/ha) | ECHCG herbicidal rating (ECHCG (Barnyardgrass); rate 0.0315 kg/ha)
0.0: TRZAWR rating ([1]; 0.0156 kg/ha) | TRZAWR rating ([1]; 0.0313 kg/ha) | TRZAWR rating ([1]; 0.0625 kg/ha) | TRZAWR rating ([1]; 0.1250 kg/ha) | TRZAWR rating ([1]; 0.2500 kg/ha) | Herbicidal rating CYPIR (CYPIR (Rice Flatsedge) [2]; [7]) | CYPIR herbicidal effect rating (CYPIR (Rice Flatsedge) [3]; 0.0313 kg/ha) | ECHORC herbicidal effect rating ([4]; 0.0313 kg/ha) | ECHORC herbicidal effect rating ([4]; 0.0625 kg/ha) | ZEAMX rating (ZEAMX (Corn, Field); 0.0156 kg/ha) | ZEAMX rating (ZEAMX (Corn, Field); 0.0313 kg/ha) | ZEAMX rating (ZEAMX (Corn, Field); 0.0625 kg/ha) | ZEAMX rating (ZEAMX (Corn, Field); 0.1250 kg/ha) | IPOHE rating ([5]; 0.0156 kg/ha) | IPOHE rating ([5]; 0.0313 kg/ha) | IPOHE rating ([5]; 0.0625 kg/ha) | Herbicidal rating SAGPY [6, 7] | Herbicidal rating SAGPY [6, 8]
4.0: Herbicidal rating CYPIR (CYPIR (Rice Flatsedge) [2]; [9]) | Herbicidal rating CYPIR (CYPIR (Rice Flatsedge) [2]; [10]) | CYPIR herbicidal effect rating (CYPIR (Rice Flatsedge) [3]; 0.1250 kg/ha) | CYPIR herbicidal effect rating (CYPIR (Rice Flatsedge) [3]; 0.2500 kg/ha) | GALAP herbicidal rating (GALAP (Galium); rate 0.0315 kg/ha) | GALAP herbicidal rating (GALAP (Galium); rate 0.0630 kg/ha)

Cn1c(C(F)(F)F)cc(=O)n(-c2cc(N=C3SCC(=O)N3[C@@H](Cc3ccccc3)C(=O)O)c(Cl)cc2F)c1=O [Compound 53, α-Benzyl-2-{{2-chloro-5-[3,6-dihydro-3-methyl-2,6-dioxo-4-(trifluoromethyl)-1(2H)-pyrimidinyl]-4-fluorophenyl}imino}-4-oxo-3-thiazolidineacetic acid, L-]
7.0: Preemergence herbicidal rating TRZAWR ([1]; rate 0.2500 kg/ha) | Postemergence herbicidal rating GALAP (GALAP (Galium); Rate 0.0315 kg/ha) | Postemergence herbicidal rating SETVI (SETVI (Foxtail, Green); Rate 0.0630 kg/ha)
6.0: Preemergence herbicidal rating ZEAMX (ZEAMX (Corn, Field); rate 0.2500 kg/ha) | Postemergence herbicidal rating SETVI (SETVI (Foxtail, Green); Rate 0.0158 kg/ha) | Postemergence herbicidal rating SETVI (SETVI (Foxtail, Green); Rate 0.0315 kg/ha)
0.0: Preemergence herbicidal rating TRZAWR ([1]; rate 0.0313 kg/ha) | Herbicidal rating CYPSE (CYPSE (Flatsedge); [11]) | Herbicidal rating CYPSE (CYPSE (Flatsedge); [12]) | Herbicidal rating CYPSE (CYPSE (Flatsedge); [13]) | Herbicidal rating CYPSE (CYPSE (Flatsedge); [14]) | Herbicidal rating ECHORC ([4]; 0.0313 kg/ha) | Herbicidal rating ECHORC ([4]; 0.0625 kg/ha) | Preemergence herbicidal rating IPOHE ([5]; rate 0.0313 kg/ha) | Herbicidal rating SAGPY [6, 11] | Herbicidal rating SAGPY [6, 12] | Herbicidal rating SAGPY [6, 13] | Herbicidal rating SAGPY [6, 14]
1.0: Preemergence herbicidal rating TRZAWR ([1]; rate 0.0625 kg/ha) | Preemergence herbicidal rating ZEAMX (ZEAMX (Corn, Field); rate 0.0313 kg/ha) | Preemergence herbicidal rating ZEAMX (ZEAMX (Corn, Field); rate 0.0625 kg/ha)
5.0: Preemergence herbicidal rating ZEAMX (ZEAMX (Corn, Field); rate 0.1250 kg/ha)
3.0: Herbicidal rating ECHORC ([4]; 0.2500 kg/ha) | Postemergence herbicidal rating GALAP (GALAP (Galium); Rate 0.0158 kg/ha) | Postemergence herbicidal rating ECHCG (ECHCG (Barnyardgrass); Rate 0.0315 kg/ha)
9.0: Herbicidal rating CYPIR (CYPIR (Rice Flatsedge) [2]; [13]) | Herbicidal rating CYPIR (CYPIR (Rice Flatsedge) [2]; [14]) | Herbicidal rating CYPIR (CYPIR (Rice Flatsedge) [3]; 0.1250 kg/ha) | Herbicidal rating CYPIR (CYPIR (Rice Flatsedge) [3]; 0.2500 kg/ha) | Postemergence herbicidal rating ABUTH (ABUTH (Velvetleaf); Rate 0.0158 kg/ha) | Postemergence herbicidal rating ABUTH (ABUTH (Velvetleaf); Rate 0.0315 kg/ha) | Postemergence herbicidal rating ABUTH (ABUTH (Velvetleaf); Rate 0.0630 kg/ha) | Herbicidal rating MOOVA (MOOVA (Monochoria); 0.1250 kg/ha) | Herbicidal rating MOOVA (MOOVA (Monochoria); 0.2500 kg/ha) | Preemergence herbicidal rating IPOHE ([5]; rate 0.0625 kg/ha) | Preemergence herbicidal rating IPOHE ([5]; rate 0.1250 kg/ha) | Preemergence herbicidal rating IPOHE ([5]; rate 0.2500 kg/ha) | Postemergence herbicidal rating GALAP (GALAP (Galium); Rate 0.0630 kg/ha) | Postemergence herbicidal rating ECHCG (ECHCG (Barnyardgrass); Rate 0.0630 kg/ha)
3.5: Postemergence herbicidal rating ORYSAT (ORYSAT (Rice, Tebonnet); Rate 0.0630 kg/ha)
2.0: Preemergence herbicidal rating TRZAWR ([1]; rate 0.1250 kg/ha) | Postemergence herbicidal rating ORYSAT (ORYSAT (Rice, Tebonnet); Rate 0.0158 kg/ha) | Herbicidal rating CYPIR (CYPIR (Rice Flatsedge) [2]; [11]) | Herbicidal rating CYPIR (CYPIR (Rice Flatsedge) [2]; [12]) | Herbicidal rating CYPIR (CYPIR (Rice Flatsedge) [3]; 0.0313 kg/ha) | Herbicidal rating CYPIR (CYPIR (Rice Flatsedge) [3]; 0.0625 kg/ha) | Herbicidal rating MOOVA (MOOVA (Monochoria); 0.0313 kg/ha) | Herbicidal rating MOOVA (MOOVA (Monochoria); 0.0625 kg/ha) | Herbicidal rating ECHORC ([4]; 0.1250 kg/ha) | Postemergence herbicidal rating ECHCG (ECHCG (Barnyardgrass); Rate 0.0158 kg/ha)
2.5: Postemergence herbicidal rating ORYSAT (ORYSAT (Rice, Tebonnet); Rate 0.0315 kg/ha)
